In ChEMBL document CHEMBL3217432, “Oxazole phosphonic acids as fructose 1,6-bisphosphatase inhibitors with potent glucose-lowering activity” (Medchemcomm, 2011) one finds IC50 and Activity data, which are given here for 37 molecules.

Structures are written as SMILES.

The target of test [1] is T1, Fructose-1,6-bisphosphatase 1 (Rattus norvegicus, UniProt P19112).
T1 sequence (P19112 whole entry): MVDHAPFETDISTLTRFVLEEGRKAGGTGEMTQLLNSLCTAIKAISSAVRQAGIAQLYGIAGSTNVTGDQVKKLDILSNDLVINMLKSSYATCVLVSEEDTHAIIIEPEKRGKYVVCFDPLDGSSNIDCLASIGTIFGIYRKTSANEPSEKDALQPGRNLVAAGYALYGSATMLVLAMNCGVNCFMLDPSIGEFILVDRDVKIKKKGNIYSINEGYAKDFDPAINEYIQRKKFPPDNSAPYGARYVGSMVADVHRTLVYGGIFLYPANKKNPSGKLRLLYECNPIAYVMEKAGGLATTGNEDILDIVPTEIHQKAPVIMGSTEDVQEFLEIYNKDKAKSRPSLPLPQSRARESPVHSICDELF
Description: Inhibition of rat liver FBPase.

The target in test [2] is T2, Fructose-1,6-bisphosphatase 1 (Homo sapiens, UniProt P09467).
T2 sequence (P09467 whole entry): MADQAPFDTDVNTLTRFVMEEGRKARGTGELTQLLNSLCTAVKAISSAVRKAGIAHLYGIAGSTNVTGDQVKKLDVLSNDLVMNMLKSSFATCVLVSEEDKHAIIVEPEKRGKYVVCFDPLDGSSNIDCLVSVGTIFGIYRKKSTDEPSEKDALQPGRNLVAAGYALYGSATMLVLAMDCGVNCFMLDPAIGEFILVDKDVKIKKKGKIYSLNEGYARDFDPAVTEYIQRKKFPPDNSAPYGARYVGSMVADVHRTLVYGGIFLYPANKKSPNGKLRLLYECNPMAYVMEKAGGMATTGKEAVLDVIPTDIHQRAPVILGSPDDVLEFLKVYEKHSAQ
As to the kind of experiment: Inhibition of human liver FBPase.

The subject of a further test is Rattus norvegicus. Description: Antidiabetic activity in rat assessed as reduction of blood glucose level at 10 mg/kg, iv relative to control. The class given is functional. Set-up: scale not given: the % may be the effect or the level left.

`Nc1nc(-c2ccc(P(=O)(O)O)o2)c(CC2CCCCC2)o1`: the IC50 in test [1] amounted to 5.5 µM; in test [2] it was 0.32 µM.

For the molecule `CCCCCc1oc(N)nc1-c1ccc(P(=O)(O)O)o1`, the results for the half-maximal inhibitory concentration (IC50) in test [1] and in test [2] were 2.7 µM and 0.21 µM, respectively. Besides, the Activity in the test on Rattus norvegicus amounted to 7%.

For the molecule `CC(C)Cc1oc(N)nc1-c1ccc(P(=O)(O)O)o1`, the Activity in the test with Rattus norvegicus was found to be 51%.

In turn, `Nc1nc(-c2ccc(P(=O)(O)O)o2)c(Sc2ccccc2)o1` displayed an IC50 in test [2] of 4 µM.

In test [2], `CNC(=O)c1oc(N)nc1-c1ccc(P(=O)(O)O)o1` yielded an IC50 of 1 µM. Further, the Activity in the test with Rattus norvegicus was determined as 0%.

In test [2], `Cc1oc(N)nc1C(=O)OCP(=O)(O)O` gave a concentration for half-maximal inhibition (IC50) of 0.42 µM.

Regarding `Nc1nc(-c2ccc(P(=O)(O)O)o2)c(-c2ccccc2)o1`, the figures for the IC50 in test [1] and in test [2] were 2.5 µM and 0.16 µM, respectively. For the same molecule, the Activity in the test with Rattus norvegicus is reported as 8%.

For the molecule `CC(C)c1oc(N)nc1C(=O)OCP(=O)(O)O`, the IC50 in test [2] was found to be 0.58 µM.

With `CCOC(=O)c1oc(N)nc1-c1ccc(P(=O)(O)O)o1`, the Activity in the test with Rattus norvegicus is reported as 18%.

With `CC(C)(C)Sc1oc(N)nc1-c1ccc(P(=O)(O)O)o1`, the IC50 was 1.7 µM in test [1] and 0.12 µM in test [2].

Consider `CCCCc1oc(N)nc1-c1ccc(P(=O)(O)O)o1`, for which the IC50 in test [1] came to 2.3 µM; in test [2], 0.17 µM. The Activity with Rattus norvegicus came out at 10%.

In test [2], `CC(C)Cc1oc(O)nc1-c1ccc(P(=O)(O)O)o1` registered an IC50 of 10 µM.

Take `Nc1nc(-c2ccc(P(=O)(O)O)o2)c(Cc2ccccc2)o1`: the IC50 was 10 µM in test [1] and 0.9 µM in test [2].

For `Nc1nc(-c2ccc(P(=O)(O)O)o2)c(Cc2cccs2)o1`, the half-maximal inhibitory concentration (IC50) was 3.75 µM in test [1] and 0.26 µM in test [2].

As for `CCNc1nc(-c2ccc(P(=O)(O)O)o2)c(CC(C)C)o1`, 10 µM corresponded to half-maximal inhibition in test [2] (IC50).

Regarding `CNc1nc(-c2ccc(P(=O)(O)O)o2)c(CC(C)C)o1`, the IC50 in test [2] turned out to be 4.3 µM.

`Nc1nc(C(=O)OCP(=O)(O)O)co1` registered an IC50 in test [2] of 7 µM.

Take `CCSC(=O)c1oc(N)nc1-c1ccc(P(=O)(O)O)o1`: the results for the IC50 in test [1] and in test [2] were 2.3 µM and 0.03 µM, respectively. Also, the Activity in the test on Rattus norvegicus is 51%.

On to `CC(C)Sc1oc(N)nc1-c1ccc(P(=O)(O)O)o1`, for which the results for the IC50 in test [1] and in test [2] were 0.9 µM and 0.11 µM, respectively. Besides, the Activity with Rattus norvegicus was determined as 61%.

In the case of `CCCCc1oc(N)nc1C(=O)OCP(=O)(O)O`, the values for the IC50 in test [1] and in test [2] were 1.7 µM and 0.25 µM, respectively. In addition, the Activity with Rattus norvegicus is recorded as 22%.

In test [2], `C=Cc1nc(-c2ccc(P(=O)(O)O)o2)c(CC(C)C)o1` registered an IC50 of 6.7 µM.

Regarding `COC(=O)c1oc(N)nc1-c1ccc(P(=O)(O)O)o1`, the IC50 stood at 3.9 µM in test [1] and 0.067 µM in test [2]. Also, the Activity with Rattus norvegicus was determined as 0%.

For the molecule `CCc1oc(N)nc1C(=O)OCP(=O)(O)O`, in test [2], the IC50 was 0.38 µM.

As for `CC(C)Cc1oc(C(C)C)nc1-c1ccc(P(=O)(O)O)o1`, half-maximal inhibition in test [2] (IC50) required 2.2 µM.

`CC(C)OC(=O)c1oc(N)nc1-c1ccc(P(=O)(O)O)o1`: it took 0.04 µM to reach half-maximal inhibition in test [2] (IC50). In addition, in the test on Rattus norvegicus, the Activity amounted to 7%.

On to `Nc1nc(-c2ccc(P(=O)(O)O)o2)c(C(=O)OCc2ccccc2)o1`, for which the results for the concentration for half-maximal inhibition (IC50) in test [1] and in test [2] were 2.25 µM and 0.085 µM, respectively. The Activity in the test on Rattus norvegicus is on record as 0%.

With `CC(C)(C)C(=O)c1oc(N)nc1-c1ccc(P(=O)(O)O)o1`, the IC50 in test [2] was 0.855 µM.

`CCCSc1oc(N)nc1-c1ccc(P(=O)(O)O)o1`: the Activity in the test with Rattus norvegicus was determined as 61%.

Regarding `CCc1nc(-c2ccc(P(=O)(O)O)o2)c(CC(C)C)o1`, the concentration for half-maximal inhibition (IC50) in test [2] was determined as 0.95 µM.

For the molecule `Cc1nc(C(=O)OCP(=O)(O)O)c(C(F)(F)F)o1`, 10 µM corresponded to half-maximal inhibition in test [2] (IC50).

In test [2], `CCCc1oc(N)nc1C(=O)OCP(=O)(O)O` displayed an IC50 of 0.28 µM.

In the case of `CC(C)Cc1ocnc1-c1ccc(P(=O)(O)O)o1`, the concentration for half-maximal inhibition (IC50) in test [2] came to 1.9 µM.

As for `C=CCc1oc(N)nc1-c1ccc(P(=O)(O)O)o1`, the figures for the IC50 in test [1] and in test [2] were 3 µM and 0.14 µM, respectively. In addition, the Activity in the test on Rattus norvegicus came out at 19%.

With `CCCCCc1oc(N)nc1C(=O)OCP(=O)(O)O`, the IC50 in test [2] is 0.35 µM.

`O=C(OCP(=O)(O)O)c1ncoc1-c1ccccc1`: in test [2], the IC50 turned out to be 10 µM.

Take `Nc1nc(-c2ccc(P(=O)(O)O)o2)co1`: in test [2], the half-inhibitory concentration (IC50) is 10 µM.

With `CC(C)Cc1oc(N(C)C)nc1-c1ccc(P(=O)(O)O)o1`, the IC50 in test [2] came to 2.1 µM.
